SMILES strings stand for the structures.

For the assay, the system named is T. brucei. Description: T. brucei bloodstream-form proliferation inhibition – absorbance, round 1, T. brucei MetRS inhibitor project, late-stage follow-up (AID 743068). The note with it: T. brucei Lister 427 bloodstream forms, AlamarBlue fluorescence, 48 h. A general note: Alamar Blue is a resazurin reagent that responds to reducing activity.
As for `CCc1ccc2c(c1)c1nnc(SCC(=O)Nc3ccc4c(c3)OCO4)nc1n2C`, the half-inhibitory concentration (IC50) (commonly the midpoint of a concentration-inhibition curve) is > 10 µM.

Consider `Cc1ccc2[nH]c3nc(SCC(=O)Nc4ccc(C(F)(F)F)cc4)nnc3c2c1`, for which the IC50 is > 10 µM.

As to `CCN(CC)C(=O)C(=O)c1cn(CC(=O)Nc2ccccc2OC)c2ccccc12`, the IC50 is > 10 µM.

For the molecule `COc1ccccc1NC(=O)Cn1cc(C(=O)C(=O)N2CCOCC2)c2ccccc21`, the IC50 was > 10 µM.

Take `Cc1cccc2[nH]c(CCN(C)C(=O)c3cccc(C4CCNC4)c3)nc12` (stereo not given): the half-maximal inhibitory concentration (IC50) is > 10 µM.

As for `O=C(CSc1nnc2c(n1)[nH]c1ccc(Br)cc12)NCc1ccccc1`, the half-maximal inhibitory concentration (IC50) was > 10 µM.

As for `O=C(Cn1cc(C(=O)C2CC2)c2ccccc21)Nc1cccc(C(F)(F)F)c1`, the IC50 stood at 2.62 µM.

Regarding `CCN(CC)C(=O)C(=O)c1cn(CC(=O)Nc2cccc(C(F)(F)F)c2)c2ccccc12`, the IC50 was determined as 2.55 µM.

For `CCCCn1c(CCNC(=O)c2ccc(F)cc2)nc2ccccc21`, the IC50 was > 10 µM.

For `CC(=O)N(CCc1ccccc1)C1CC(=O)N(c2ccc(Br)cc2)C1=O` (stereo not given), the concentration for half-maximal inhibition (IC50) is > 10 µM.

Turning to `O=C(NCc1nc2ccccc2[nH]1)C1=C[C@@H](C2CC2)C[C@@H](OCc2ccc(CO)cc2)O1`, the 50% inhibitory concentration (IC50) is > 10 µM.

With `CC1Cc2ccccc2N1C(=O)Cn1cc(C(=O)C(=O)N2CCOCC2)c2ccccc21` (stereo not given), the IC50 was > 10 µM.

As for `COc1cccc(NC(=O)C2CC(=O)n3c(nc4ccccc43)N2)c1` (stereo not given), the half-inhibitory concentration (IC50) was > 10 µM.

Turning to `CNC(=S)N(CCc1ccccc1)C1CC(=O)N(c2ccc(Br)cc2)C1=O` (stereo not given), the IC50 stood at 3.44 µM.

Take `CCN(CC)C(=O)C(=O)c1cn(CC(=O)Nc2cccc(OC)c2)c2ccccc12`: the IC50 was > 10 µM.

Consider `O=C(NCc1nc2ccccc2[nH]1)C1=C[C@H](c2ccccc2)C[C@H](OCc2ccc(CO)cc2)O1`, for which the IC50 is > 10 µM.

`O=C(NCCc1nc2ccccc2[nH]1)c1ccc(Cl)c(Cl)c1`: the half-inhibitory concentration (IC50) is > 10 µM.

For `Cc1cccc(NC(=O)C2CC(=O)n3c(nc4ccccc43)N2)c1` (stereo not given), the concentration for half-maximal inhibition (IC50) was > 10 µM.

`COc1ccc(CCN(C(=O)c2cccc(F)c2)C2CC(=O)N(c3ccc(Br)cc3)C2=O)cc1` (stereo not given): the IC50 was > 10 µM.

With `O=C(NCCc1nc2ccccc2[nH]1)c1ccc(Cl)cc1Cl`, the half-maximal inhibitory concentration (IC50) was > 10 µM.

On to `CCO[C@H]1OC(C(=O)NCc2nc3ccccc3[nH]2)=C[C@@H](c2ccc(Br)cc2)[C@@H]1CCCO`, for which the IC50 is > 10 µM.

On to `O=C(Cn1cc(C(=O)c2ccccc2)c2ccccc21)Nc1cccc(C(F)(F)F)c1`, for which the 50% inhibitory concentration (IC50) worked out at 4.2 µM.

Turning to `CC(=O)N(CCc1ccccc1)C1CC(=O)N(c2ccc(Cl)cc2)C1=O` (stereo not given), the 50% inhibitory concentration (IC50) was > 10 µM.

For `O=C(NCCc1nc2ccccc2[nH]1)c1c(F)cccc1F`, the IC50 was > 10 µM.

With `O=C(NCc1nc2ccccc2[nH]1)C1=C[C@H](c2ccc3c(c2)OCO3)C[C@H](OCCCCO)O1`, the half-inhibitory concentration (IC50) was > 10 µM.

Take `CCN(C(=O)Cn1cc(C(=O)C(=O)N2CCOCC2)c2ccccc21)c1ccccc1`: the IC50 is > 10 µM.

As to `Cc1cc2cc(C(=O)N3CCCC(c4nc5ccccc5[nH]4)C3)ccc2o1` (stereo not given), the IC50 was > 10 µM.

In the case of `COc1ccc(NC(=O)CSc2nnc3c4cc(C)ccc4n(C)c3n2)cc1`, the 50% inhibitory concentration (IC50) is > 10 µM.

`Cc1ccc(C(=O)NCCc2nc3ccccc3[nH]2)cc1[N+](=O)[O-]`: the half-maximal inhibitory concentration (IC50) is > 10 µM.

Consider `O=C(Cn1cc(C(=O)c2ccco2)c2ccccc21)Nc1cccc(C(F)(F)F)c1`, for which the IC50 worked out at 8.18 µM.

Consider `CCN(CC)C(=O)C(=O)c1cn(CC(=O)N2CCCc3ccccc32)c2ccccc12`, for which the 50% inhibitory concentration (IC50) was > 10 µM.

With `O=C(Cn1cc(C(=O)C(=O)N2CCOCC2)c2ccccc21)NCc1ccccc1`, the IC50 was > 10 µM.

Take `COc1ccccc1NC(=O)CSc1nnc2c(n1)[nH]c1ccc(C)cc12`: the concentration for half-maximal inhibition (IC50) was > 10 µM.

On to `O=C(CSC1CC(=O)N(c2cccc(Cl)c2)C1=O)Nc1ccc(Br)cc1` (stereo not given), for which the IC50 is > 10 µM.

As to `O=C1CC(NCCc2ccccc2)C(=O)N1c1ccc(Br)cc1` (stereo not given), the IC50 was > 10 µM.

On to `Cc1ccc(C(=O)NCCc2nc3ccccc3[nH]2)cc1C`, for which the 50% inhibitory concentration (IC50) is > 10 µM.

For the molecule `O=C(Cn1cc(C(=O)COc2ccccc2)c2ccccc21)Nc1cccc(C(F)(F)F)c1`, the half-inhibitory concentration (IC50) is > 10 µM.

Take `CC(C)(C)[C@H]1C=C(C(=O)NCc2nc3ccccc3[nH]2)O[C@@H](OCc2ccc(CO)cc2)C1`: the half-maximal inhibitory concentration (IC50) is > 10 µM.

As for `CCN(CC)C(=O)C(=O)c1cn(CC(=O)N(CC)c2ccccc2)c2ccccc12`, the IC50 was > 10 µM.

With `O=C(C(=O)N1CCOCC1)c1cn(CC(=O)N2CCCc3ccccc32)c2ccccc12`, the half-inhibitory concentration (IC50) is > 10 µM.

Consider `CCN(CCc1nc2ccc(C)cc2[nH]1)C(=O)c1ccc2ncccc2c1`, for which the IC50 is > 10 µM.

Consider `CC(=O)c1cn(CC(=O)Nc2cccc(C(F)(F)F)c2)c2ccccc12`, for which the IC50 was > 10 µM.

Turning to `CC(C)c1nc2ccc(C(=O)N(C)CCc3nc4ccc(F)cc4[nH]3)cc2o1`, the half-inhibitory concentration (IC50) was > 10 µM.

As for `Cn1c(CCNC(=O)c2ccc(Cl)cc2)nc2ccccc21`, the 50% inhibitory concentration (IC50) is > 10 µM.

`COCCc1nc2ccc(C(=O)NCCc3nc4ccc(OC)cc4[nH]3)cc2o1`: the half-inhibitory concentration (IC50) was > 10 µM.

Turning to `O=C(Cn1cc(C(=O)C(=O)N2CCCC2)c2ccccc21)Nc1ccccc1`, the half-maximal inhibitory concentration (IC50) is > 10 µM.

Take `O=C(Cn1cc(C(=O)C(=O)N2CCOCC2)c2ccccc21)NCC1CCCO1` (stereo not given): the IC50 is > 10 µM.

As to `O=C(NCCc1nc2ccccc2[nH]1)c1ccc(Cl)cc1`, the IC50 is > 10 µM.

Take `Cc1cccc2[nH]c(C3CCCN(C(=O)c4cccc5cccnc45)C3)nc12` (stereo not given): the IC50 was > 10 µM.

Consider `Cc1ccc(CNC(=O)CSc2nnc3c(n2)[nH]c2ccc(C)cc23)cc1`, for which the IC50 was > 10 µM.

The molecule `COc1ccc(CCN(C(=S)Nc2ccccc2)C2CC(=O)N(c3ccc(Cl)cc3)C2=O)cc1` (stereo not given) gave a half-inhibitory concentration (IC50) of 2.1 µM.

Take `Cc1cccc(C(=O)NCCc2nc3ccccc3n2CCOc2ccccc2)c1`: the IC50 is > 10 µM.

For `CCc1ccc2[nH]c3nc(SCC(=O)NCc4cccc(OC)c4)nnc3c2c1`, the IC50 is > 10 µM.

Take `CCC(=O)c1cn(CC(=O)Nc2cccc(C(F)(F)F)c2)c2ccccc12`: the IC50 is > 10 µM.

In the case of `COc1ccc(NC(=O)C2CC(=O)n3c(nc4ccccc43)N2)cc1` (stereo not given), the half-inhibitory concentration (IC50) is > 10 µM.

These data come from PubChem BioAssay AID743068 (The Scripps Research Institute Molecular Screening Center, 2013).
